Laboratory results reported in PubChem BioAssay AID2060904 (Molecular Pharmacology Branch, DTP, NCI, 2025).

System: 349418-098-R-PDC complex spheroid viability
Assay: Anticancer human tumor 349418-098-R-PDC patient-derived lung adenocarcinoma cell line growth inhibition [RAS]
Details: for IC50: curve of first compound; for viability, T/C: stronger effect = lower value
From the text: RAS pathway inhibitors in Combinations in Complex Spheroids
A high-throughput screen of multi-cell type tumor spheroids was designed to identify active combinations of RAS pathway inhibitors and targeted small molecules. Complex spheroids include a stromal component modeled by human endothelial cells (HUVEC) and fibroblasts modeled by human mesenchymal stem cells (MSCs). The concentration ranges selected for each drug and investigational agent were based upon clinically achievable concentrations if the clinical Cmax of the agent was known.
Compounds. The drugs and investigational agents: abemaciclib (NSC768073), cobimetinib (NSC768068), divarasib (GDC6063, NSC841802), docetaxel (NSC628503), GDC-1971 (RLY-1971, NSC841576), gemcitabine (NSC613327), inavolisib (NSC800729), ipatasertib (NSC767898), KB-0742 (NSC834161), MRTX-1133 (NSC836407), osimertinib (NSC779217), RMC-4630 (NSC839698), RMC-6236 (NSC851965), RMC-6291 (NSC852671), Ro-3306 (NSC812927), sapanisertib (NSC764658), SN-38 (NSC673596), staurosporine (NSC755774), SY5609 (NSC837396), and tovorafenib (DAY101, NSC766906), were obtained from the National Cancer Institute (NCI) Developmental Therapeutics Program Chemical Repository. The FDA-approved anticancer drug set is available from the NCI Developmental Therapeutics Program. […] The stock solutions were prepared in dimethyl sulfoxide (DMSO, Sigma-Aldrich, St. Louis, MO, cat. D2650) at 800-fold the tested concentration and stored at -70 degrees C prior to their use. All drugs and investigational agents were tested over a range starting from a high concentration at or near the clinical Cmax and decreasing in half-log increments. If the clinical Cmax for an agent had not been determined, the highest concentration tested was 10 microM.
Cell Culture. All cells were maintained in an incubator at 37 degrees C and 5% CO2 with 95% humidity. The PDC lines were cultured according to standard operating procedures established by the NCI PDMR. All PDCs were thawed and cultured in Matrigel-coated flasks prepared with a working solution of 1X Ham's F-12 nutrient mix, without supplementation (Invitrogen, Waltham, MA, cat. 11765054), 100 U/mL penicillin-streptomycin (Invitrogen, cat. 15140122), and 2.5% Matrigel (Corning Inc., Corning, NY, cat. 354248) for the first three passages. The 362531-283-R-J2-PDC and 782815-120-R-J1-PDC lines were cultured in 6C/Colon 1B media, which includes advanced DMEM/F-12 (Thermo Fisher Scientific, cat. 12634028), 10 mM HEPES (Thermo Fisher Scientific, cat. 15630080), 1X GlutaMAX supplement (Thermo Fisher Scientific, cat. 35050061), 0.1 mg/mL primocin (InvivoGen, San Diego, CA, cat. ant-pm-2), 10% defined fetal bovine serum, heat inactivated (HyClone Laboratories Inc., Logan, UT, cat. SH30070.03HI), 50% L-WRN conditioned media (ATCC, cat. CRL-3276), 1.25 mM N-Acetyl-L-cysteine (Sigma-Aldrich, cat. A9165), 10 mM nicotinamide (Sigma-Aldrich, cat. N0636), 1X B-27 supplement (Thermo Fisher Scientific, cat. 17504044), 1X N-2 supplement (Thermo Fisher Scientific, cat. 17502048), 50 ng/mL human EGF (Thermo Fisher Scientific, cat. PHG0311), and 10 microM Y-27632 dihydrochloride (Tocris Bioscience, cat. 1254). The K12877-001-R-J1-PDC line was cultured in 6I media, which includes all 6C/Colon 1B media plus 10 ng/mL human FGF-10 (PeproTech, cat. 100-26), 1 ng/mL human FGF-2 (PeproTech, cat. 100-18B), 1 µM prostaglandin E2 (Tocris Bioscience, cat. 2296), […] hydrocortisone (Sigma-Aldrich, cat. H4001), and […] bovine insulin (Sigma-Aldrich, cat. I6634). The K86415-001-R-J1-PDC line was cultured in 6D media, which includes all 6C/Colon 1B media components minus the L-WRN conditioned media. The 485176-168-R4-J1-PDC was cultured in PANC media, which includes all 6C/Colon 1B media plus 100 ng/mL human FGF-10 (PeproTech, cat. 100-26), 500 nM SB-431542 (Selleckchem, cat. S1067), and 10 nM gastrin (Tocris Bioscience, cat. 3006). […]

[1] = second compound 0.000949 µM, first compound 0.00316 µM
[2] = second compound 0.000949 µM, first compound 0.01 µM
[3] = second compound 0.000949 µM, first compound 0.0316 µM
[4] = second compound 0.000949 µM, first compound 0.1 µM
[5] = second compound 0.000949 µM, first compound 0.316 µM
[6] = second compound 0.000949 µM, first compound 1 µM
[7] = second compound 0.003 µM, first compound 0.00316 µM
[8] = second compound 0.003 µM, first compound 0.01 µM
[9] = second compound 0.003 µM, first compound 0.0316 µM
[10] = second compound 0.003 µM, first compound 0.1 µM
[11] = second compound 0.003 µM, first compound 0.316 µM
[12] = second compound 0.003 µM, first compound 1 µM
[13] = second compound 0.00949 µM, first compound 0.00316 µM
[14] = second compound 0.00949 µM, first compound 0.01 µM
[15] = second compound 0.00949 µM, first compound 0.0316 µM
[16] = second compound 0.00949 µM, first compound 0.1 µM
[17] = second compound 0.00949 µM, first compound 0.316 µM
[18] = second compound 0.00949 µM, first compound 1 µM
[19] = second compound 0.03 µM, first compound 0.00316 µM
[20] = second compound 0.03 µM, first compound 0.01 µM
[21] = second compound 0.03 µM, first compound 0.0316 µM
[22] = second compound 0.03 µM, first compound 0.1 µM
[23] = second compound 0.03 µM, first compound 0.316 µM
[24] = second compound 0.03 µM, first compound 1 µM
[25] = second compound 0.0949 µM, first compound 0.00316 µM
[26] = second compound 0.0949 µM, first compound 0.01 µM
[27] = second compound 0.0949 µM, first compound 0.0316 µM
[28] = second compound 0.0949 µM, first compound 0.1 µM
[29] = second compound 0.0949 µM, first compound 0.316 µM
[30] = second compound 0.0949 µM, first compound 1 µM
[31] = second compound 0.3 µM, first compound 0.00316 µM
[32] = second compound 0.3 µM, first compound 0.01 µM
[33] = second compound 0.3 µM, first compound 0.0316 µM
[34] = second compound 0.3 µM, first compound 0.1 µM
[35] = second compound 0.3 µM, first compound 0.316 µM
[36] = second compound 0.3 µM, first compound 1 µM
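Further: spheroids exposed to compound for seven days before viability readout.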

C=CC(=O)Nc1cc(Nc2nccc(-c3cn(C)c4ccccc34)n2)c(OC)cc1N(C)CCN(C)C + CCn1c(-c2cc(N3CCN(C)CC3)cnc2C(C)OC)c2c3cc(ccc31)-c1csc(n1)CC(NC(=O)C1CC1C)C(=O)N1CCCC(N1)C(=O)OCC(C)(C)C2
IC50 (second compound 0.000949 µM): > 1000 nM | IC50 (second compound 0.003 µM): > 1000 nM | IC50 (second compound 0.00949 µM): > 1000 nM | IC50 (second compound 0.03 µM): > 1000 nM | IC50 (second compound 0.0949 µM): > 1000 nM | IC50 (second compound 0.3 µM): > 1000 nM | viability, T/C [1]: 101% | viability, T/C [2]: 94.8% | viability, T/C [3]: 112% | viability, T/C [4]: 109% | viability, T/C [5]: 96.8% | viability, T/C [6]: 76% | viability, T/C [7]: 112% | viability, T/C [8]: 95.8% | viability, T/C [9]: 94.4% | viability, T/C [10]: 98.7% | viability, T/C [11]: 95% | viability, T/C [12]: 70.3% | viability, T/C [13]: 100% | viability, T/C [14]: 88.5% | viability, T/C [15]: 94.8% | viability, T/C [16]: 75.8% | viability, T/C [17]: 98.6% | viability, T/C [18]: 75.7% | viability, T/C [19]: 100% | viability, T/C [20]: 107% | viability, T/C [21]: 107% | viability, T/C [22]: 102% | viability, T/C [23]: 92.1% | viability, T/C [24]: 65.3% | viability, T/C [25]: 105% | viability, T/C [26]: 101% | viability, T/C [27]: 97.8% | viability, T/C [28]: 105% | viability, T/C [29]: 86.7% | viability, T/C [30]: 72.8% | viability, T/C [31]: 98.1% | viability, T/C [32]: 101% | viability, T/C [33]: 108% | viability, T/C [34]: 102% | viability, T/C [35]: 109% | viability, T/C [36]: 77.6%

Nc1ccn(C2OC(CO)C(O)C2(F)F)c(=O)n1 (centres undefined) + CCn1c(-c2cc(N3CCN(C)CC3)cnc2C(C)OC)c2c3cc(ccc31)-c1csc(n1)CC(NC(=O)C1CC1C)C(=O)N1CCCC(N1)C(=O)OCC(C)(C)C2
IC50 (second compound 0.000949 µM): < 3.16 nM | IC50 (second compound 0.003 µM): < 3.16 nM | IC50 (second compound 0.00949 µM): < 3.16 nM | IC50 (second compound 0.03 µM): < 3.16 nM | IC50 (second compound 0.0949 µM): < 3.16 nM | IC50 (second compound 0.3 µM): < 3.16 nM | viability, T/C [1]: 33.4% | viability, T/C [2]: 6.66% | viability, T/C [3]: 5.75% | viability, T/C [4]: 4.77% | viability, T/C [5]: 5.22% | viability, T/C [6]: 4.87% | viability, T/C [7]: 21.9% | viability, T/C [8]: 6.3% | viability, T/C [9]: 5.15% | viability, T/C [10]: 4.81% | viability, T/C [11]: 4.73% | viability, T/C [12]: 4.09% | viability, T/C [13]: 24.4% | viability, T/C [14]: 6.44% | viability, T/C [15]: 5.46% | viability, T/C [16]: 4.39% | viability, T/C [17]: 5.27% | viability, T/C [18]: 4.67% | viability, T/C [19]: 29% | viability, T/C [20]: 9.12% | viability, T/C [21]: 4.98% | viability, T/C [22]: 5.4% | viability, T/C [23]: 5.08% | viability, T/C [24]: 5.39% | viability, T/C [25]: 43.2% | viability, T/C [26]: 10.6% | viability, T/C [27]: 4.96% | viability, T/C [28]: 5.29% | viability, T/C [29]: 5.26% | viability, T/C [30]: 4.88% | viability, T/C [31]: 46.8% | viability, T/C [32]: 16.9% | viability, T/C [33]: 6.97% | viability, T/C [34]: 5.92% | viability, T/C [35]: 5.96% | viability, T/C [36]: 5.73%
